Results reported in article PMC5566576, “Identification and Functional Characterization of Small Alarmone Synthetases in Corynebacterium glutamicum” (Frontiers in Microbiology, 2017).

Experiments:
RelCg [1] = biological target: T1, RelCg (Corynebacterium glutamicum, UniProt O87331); assay: pyrophosphokinase assay, HPLC-MS product detection (ppGpp); type: biochemical; conditions: 4 mM ATP, 4 mM GDP, 50 mM Tris-HCl pH 8.0, 5 mM MgCl2, 30°C, 4 h; GDP also phosphorylated to GTP
T1 construct: gene relA
T1 sequence (O87331 1-760): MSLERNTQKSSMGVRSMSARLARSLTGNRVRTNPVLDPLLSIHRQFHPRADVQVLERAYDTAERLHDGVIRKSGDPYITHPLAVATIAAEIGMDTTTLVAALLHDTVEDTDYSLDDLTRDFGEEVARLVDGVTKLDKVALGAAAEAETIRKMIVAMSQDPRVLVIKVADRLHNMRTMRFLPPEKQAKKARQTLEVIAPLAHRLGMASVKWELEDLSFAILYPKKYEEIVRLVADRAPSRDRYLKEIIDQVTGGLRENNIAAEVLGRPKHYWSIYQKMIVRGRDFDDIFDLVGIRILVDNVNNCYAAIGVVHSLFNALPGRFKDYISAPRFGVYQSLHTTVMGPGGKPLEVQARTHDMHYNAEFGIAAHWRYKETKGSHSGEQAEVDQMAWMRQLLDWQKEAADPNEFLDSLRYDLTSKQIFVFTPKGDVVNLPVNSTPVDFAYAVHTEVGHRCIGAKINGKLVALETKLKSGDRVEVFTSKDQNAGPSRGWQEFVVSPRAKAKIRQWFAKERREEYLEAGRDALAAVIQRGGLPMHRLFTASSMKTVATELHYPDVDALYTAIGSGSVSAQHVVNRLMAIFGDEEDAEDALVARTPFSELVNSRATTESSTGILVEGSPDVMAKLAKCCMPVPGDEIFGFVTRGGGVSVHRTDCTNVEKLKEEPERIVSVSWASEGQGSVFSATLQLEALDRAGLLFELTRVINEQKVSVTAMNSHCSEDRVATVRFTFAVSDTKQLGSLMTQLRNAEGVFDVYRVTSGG

RelP*Cg [2] = biological target: T2, RelP*Cg (Corynebacterium glutamicum, UniProt Q8NR76); assay: kinase activity, HPLC-MS product detection (ADP and GTP); type: biochemical; conditions: 4 mM ATP, 4 mM GDP, 50 mM Tris-HCl pH 8.0, 5 mM MgCl2, 30°C, 4 h; no pyrophosphokinase activity
T2 construct: gene Cgl1177

RelP*Cg [3] = biological target: T2, RelP*Cg; assay: phosphohydrolase activity, HPLC-MS product detection (ADP and GDP); type: biochemical; conditions: 4 mM ATP, 4 mM GTP, 50 mM Tris-HCl pH 8.0, 5 mM MgCl2, 30°C, 4 h; no alarmone formed
RelCg [4] = biological target: T1, RelCg; assay: pyrophosphokinase assay, HPLC-MS product detection (pppGpp); type: biochemical; conditions: 4 mM ATP, 4 mM GTP, 50 mM Tris-HCl pH 8.0, 5 mM MgCl2, 30°C, 4 h
[5] = substrate: Nc1ncnc2c1ncn2[C@@H]1O[C@H](COP(=O)(O)OP(=O)(O)OP(=O)(O)O)[C@@H](O)[C@H]1O; assay: pyrophosphokinase assay, HPLC-MS quantification of AMP; half-maximal specific activity; type: biochemical, Corynebacterium glutamicum; conditions: 25 mM GTP, 50 mM HEPES-Na pH 7.0, 200 mM NaCl, 5 mM MgCl2, 30°C, 60 min, 250 nM enzyme
[6] = substrate: Nc1nc2c(ncn2[C@@H]2O[C@H](COP(=O)(O)OP(=O)(O)O)[C@@H](O)[C@H]2O)c(=O)[nH]1; assay: pyrophosphokinase assay, HPLC-MS quantification of AMP, polynomial fit; type: biochemical, Corynebacterium glutamicum; conditions: 25 mM ATP, 50 mM HEPES-Na pH 7.0, 200 mM NaCl, 5 mM MgCl2, 30°C, 60 min, 250 nM enzyme, substrate excess inhibition at 25-50 mM
[7] = substrate: Nc1nc2c(ncn2[C@@H]2O[C@H](COP(=O)(O)OP(=O)(O)OP(=O)(O)O)[C@@H](O)[C@H]2O)c(=O)[nH]1; assay: as above; type: biochemical, Corynebacterium glutamicum; conditions: 25 mM ATP, 50 mM HEPES-Na pH 7.0, 200 mM NaCl, 5 mM MgCl2, 30°C, 60 min, 250 nM enzyme, substrate excess inhibition at 25-50 mM

T2 sequence (Q8NR76 entry or part of it): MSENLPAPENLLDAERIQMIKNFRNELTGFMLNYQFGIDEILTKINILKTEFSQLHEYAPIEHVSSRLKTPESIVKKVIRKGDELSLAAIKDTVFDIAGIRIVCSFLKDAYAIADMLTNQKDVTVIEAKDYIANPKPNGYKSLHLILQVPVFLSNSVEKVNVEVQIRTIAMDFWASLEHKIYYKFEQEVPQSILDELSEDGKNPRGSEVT

Nc1nc2c(ncn2[C@@H]2O[C@H](COP(=O)(O)OP(=O)(O)O)[C@@H](O)[C@H]2O)c(=O)[nH]1 [GDP]
pyrophosphokinase assay, HPLC-MS product detection (ppGpp) (RelCg [1]): pyrophosphorylation of GDP and GTP to ppGpp and pppGpp was detected
kinase activity, HPLC-MS product detection (ADP and GTP) (RelP*Cg [2]): RelP^*Cg possesses a kinase activity, since ADP and GTP were produced

Nc1nc2c(ncn2[C@@H]2O[C@H](COP(=O)(O)OP(=O)(O)OP(=O)(O)O)[C@@H](O)[C@H]2O)c(=O)[nH]1 [GTP]
phosphohydrolase activity, HPLC-MS product detection (ADP and GDP) (RelP*Cg [3]): containing RelP^*Cg as well as ATP and GTP as substrates, significant amounts of ADP and GDP
pyrophosphokinase assay, HPLC-MS product detection (pppGpp) (RelCg [4]): pyrophosphorylation of GDP and GTP to ppGpp and pppGpp was detected

B1: RelSCg (Corynebacterium glutamicum ATCC 13032) (protein)
chain: MSDNTLSQFGSYYHEFRRAHPMADVEFLLAIEELLTDGGVTFDRVTTRIKEWSSLKAKARKRRNDGSLIYPDPRKDIHDMIGVRITTYHSTEIPVALKVLQDSFIVHKSVDKAAETRISGGFGYGSHHLILEVDDTSDDLQDYKGLVFEVQVRTVLQHAWAEFEHDIRYKRADVSNPEDFSAEVDRMFTLAAGLIELADQQFDQIAALKETSRVADESVELTAETLPGVLAMLIGNRFPRPRSTNYRFLEDILVANSITSVVQLRELLNPTDIEVLLKVMNYRFHPGQIRIIDDLLLKRFGQSHIDATVATDSQPLNAKRHRQLKRKLELMTQAHLVEPPN
K0.5 [5]: 0.8 mM
Km [6]: 6.1 mM
Km [7]: 4.1 mM
